In EPA's ToxValDB 9.5 (doi:10.2903/j.efsa.2017.4988):
Values after ≈ are worked out from the molar mass of the structure shown.

Columns and labels:
Rattus norvegicus = details: for LD50: acute, mortality
Anas platyrhynchos = details: acute; oral; unspecified; mortality
Anomia sp. = details: acute; duration: 96 hours; mortality
Apis mellifera = details: acute, mortality
Canidae = details: oral, Dog Other
Cyprinodon variegatus = details: acute; duration: 96 hours; mortality
Daphnia magna = details: chronic/long-term; duration: 21 days
Gammaridae = details: chronic/long-term; duration: 28 days
Hypoaspis aculeifer = details: chronic/long-term; duration: 14 days; reproduction
Oncorhynchus mykiss = details: chronic/long-term; duration: 89 days; mortality
Aphidius rhopalosiphi = assay: LR50; higher = less toxic; details: not reported; mortality

| Compound | LD50 (Rattus norvegicus) | LD50 (Anas platyrhynchos) | LC50 (Anomia sp.) | LD50 (Apis mellifera; dermal) | LD50 (Apis mellifera; oral, unspecified) | NOAEL (Canidae; chronic, duration: 1 years) | NOAEL (Canidae; subchronic, duration: 90 days) | LC50 (Colinus virginianus; acute, oral, diet, mortality) | NOEC (Colinus virginianus; chronic) | LC50 (Cyprinodon variegatus) | NOEC (Daphnia magna) | NOEC (Gammaridae) | NOEC (Hypoaspis aculeifer) | NOEC (Oncorhynchus mykiss) | LD50 (Rattus norvegicus; oral) | NOAEL (Rattus norvegicus; chronic, duration: 2 years) | NOAEL (Rattus norvegicus; reproduction developmental, organ weight) | LC50 (Tagia sp.; acute, duration: 14 days, mortality) | NOEC (Tagia sp.; chronic/long-term, duration: 56 days, reproduction) | LR50 (Aphidius rhopalosiphi) |
| --- | --- | --- | --- | --- | --- | --- | --- | --- | --- | --- | --- | --- | --- | --- | --- | --- | --- | --- | --- | --- |
| CCOc1cc(C(C)(C)C)ccc1C(N)COC(=O)c1c(F)cccc1F (stereo not given) | > 5000 mg/kg |  |  |  |  |  |  |  |  |  |  |  |  |  |  |  |  |  |  |  |
| CCOc1cc(C(C)(C)C)ccc1C1COC(c2c(F)cccc2F)=N1 (stereo not given) [Etoxazole] |  | > 2000 mg/kg | 4.3 ng/mL (≈ 0.012 µM) | > 200 µg/piece | > 200 µg/piece | 5 mg/kg-day | 5 mg/kg-day | 1270 mg/kg-day | 28.6 mg/kg-day | > 160 ng/mL | 0.00013 mg/L | 0.86 mg/kg | 0.2 mg/kg | 0.015 mg/L | > 5000 mg/kg | 4 mg/kg-day | 24.5 mg/kg-day | > 1000 mg/kg | 5 mg/kg | > 55 g/ha |
